Results taken from PMC9645260, “Small-molecule inhibitors of P-Rex guanine-nucleotide exchange factors” (Small GTPases, 2022).

Test system: primary mouse neutrophils
Experiment: Neutrophil ROS production, PMA-stimulated
Format: cell-based
Conditions: 1 µM, 500 nM PMA
Protocol: Prex^−/− mice (Prex1^−/−Prex2^−/−) with general P-Rex deficiency were described previously and were compared to Prex^+/+ (Prex1^+/+Prex2^+/+) control mice on the same genetic background (C57Bl6/129Ola backcrossed seven times to C57Bl6). Mice were group-housed (up to 5) under specific opportunistic pathogen-free isolator conditions in Babraham’s small animal barrier facility that uses 12 h light/dark cycles with dusk and dawn settings, and were fed chow diet and water ad libitum. Mice from both sexes were used for experiments, at young-adult age (between 8 and 14 weeks), and were sex- and age-matched between genotypes within experiments. […]
Mature primary neutrophils were isolated from the bone marrow of age- and sex-matched Prex^+/+ and Prex^−/− mice freshly each day at 4°C, using Percoll^Plus (GE Healthcare) gradient, as described, using endotoxin-free media throughout. Isolated neutrophils were 70–90% pure, as assessed by KwikDiff staining of cytospins. ROS production was measured by real-time chemiluminescence assay as described, except that neutrophils were incubated with PREX-in1 before the assay. […] Real-time ROS production was recorded in a Berthold MicroLumat Plus luminometer (Berthold Technologies) at 37°C, for 2.5 min with fMLP stimulation or for 10 min with PMA stimulation. […]

COc1ccc(-c2[nH]nc3c2C(c2ccc(-c4ccc(Cl)cc4)o2)C(C#N)=C(N)O3)cc1 (stereo not shown) [PREX-in1, 6-amino-4-[5-(4-chlorophenyl)-2-furyl]-3-(4-methoxyphenyl)-2,4-dihydropyrano[2,3-c]pyrazole-5-carbonitrile]
effect on PMA-induced ROS response: unaffected
